Results on four compounds are retold here after PMC3529809 (Steroids, 2012).

pIC50, pKd, pKi: −log10 of the molar value. “Also recorded” adds a separate entry of the source.

The target in one test is hERα (Homo sapiens, UniProt P03372). As to the kind of experiment: ERELUC transient transfection reporter assay, ERα in HEK-293 cells. In kind it is cell-based. Conditions: HEK-293; result in words.
For test [1], the target named is T1, human ERβ (Homo sapiens, UniProt Q92731). Nature of the test: ERELUC transient transfection reporter assay, ERβ in HepG2 cells. As to conditions: 5 µM, 24 h, Fig. 1B; result in words. In kind it is cell-based. In general terms: Reporter assays use an easily measured gene product as a stand-in for the process of interest.
T1 sequence (Q92731 whole entry): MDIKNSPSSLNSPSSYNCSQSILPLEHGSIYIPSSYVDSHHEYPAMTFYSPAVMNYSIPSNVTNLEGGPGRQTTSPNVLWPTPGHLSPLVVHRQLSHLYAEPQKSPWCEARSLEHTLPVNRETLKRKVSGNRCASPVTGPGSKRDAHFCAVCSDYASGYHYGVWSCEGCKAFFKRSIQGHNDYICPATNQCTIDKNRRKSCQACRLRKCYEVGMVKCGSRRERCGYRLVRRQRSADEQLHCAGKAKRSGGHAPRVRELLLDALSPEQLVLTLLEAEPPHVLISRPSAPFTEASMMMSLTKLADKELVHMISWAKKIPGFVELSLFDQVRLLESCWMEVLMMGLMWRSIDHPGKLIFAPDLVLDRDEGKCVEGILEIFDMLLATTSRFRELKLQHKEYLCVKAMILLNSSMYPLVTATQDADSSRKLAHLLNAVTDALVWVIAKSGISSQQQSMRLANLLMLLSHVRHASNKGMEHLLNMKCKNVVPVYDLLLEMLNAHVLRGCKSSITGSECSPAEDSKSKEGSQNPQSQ
In test [2] the test system is TFF1 (pS2), PGR (PR), CTSD (cathepsin D) transcription. As to the kind of experiment: QRT-PCR of endogenous ER-target genes in ERα-transfected HEK-293 cells. Format: cell-based, human. Conditions: 10 nM E2 or 5 µM sterol, 24 h, Fig. 5A.
A further test concerns NRF1 (NRF-1) expression. Nature of the test: QRT-PCR of NRF1 in ERβ-transfected HepG2 cells. In kind it is cell-based, human. As to conditions: 10 nM E2 or 5 µM sterol, 24 h, Fig. 5B.
Test [3] relates to ERα. Conditions: 50 µM, COS cells; cited from earlier work.
For test [4], the system named is ERβ. Conditions: 50 µM, COS cells; cited from earlier work.
In test [5] the test system is MCF-7 human breast cancer cells. Nature of the test: Cell proliferation BrdU assay. In kind it is cell-based. Conditions: 48 h BrdU; 10 nM E2, 5 µM sterols; Fig. 7. Background: Uptake of a labelled nucleoside into DNA is a usual measure of proliferation.
The test system of the next test is MCF-7 cells. Conditions: cited from earlier work; for proliferation of MCF-7 cells: 1–10 µM concentrations; for MCF-7 cell growth: DHEA 0.5 µM, ADIOL 2 nM; for MCF-7 cell proliferation: less than E2.
Test [6] relates to ERα. As to conditions: 0.1 µM, HEK-293; cited from earlier work.
For test [7], the system named is ERβ. As to conditions: 0.1 µM, HEK-293; cited from earlier work.
For test [8], the target named is T1, human ERβ. Nature of the test: [3H] E2 ligand binding competition. Conditions: IC50 for ERβ, competition with 30 nM [3H] E2, Fig. 6B.
For test [9], the target named is ERβ. As to conditions: expressed in COS-1 cells, cited from earlier work.
Test [10] deals with ERα+ MCF-7 and triple-negative MDA-MB-231 and Hs578T breast cancer cells. Conditions: 100 µM; cited from earlier work.
Test [11] has as its system diethylnitrosamine-induced hepatic tumors. As to conditions: 0.6% in the diet, rats; cited from earlier work.
The test system of test [12] is ZR-75-1 breast cancer xenografts. Conditions: twice daily s.c. injections of 0.3 mg, nude mice; cited from earlier work.
In test [13] the test system is NMU and DMBA induced tumors of the mammary gland. As to conditions: oral, rats; cited from earlier work.

Sequence of hERα (P03372 whole entry): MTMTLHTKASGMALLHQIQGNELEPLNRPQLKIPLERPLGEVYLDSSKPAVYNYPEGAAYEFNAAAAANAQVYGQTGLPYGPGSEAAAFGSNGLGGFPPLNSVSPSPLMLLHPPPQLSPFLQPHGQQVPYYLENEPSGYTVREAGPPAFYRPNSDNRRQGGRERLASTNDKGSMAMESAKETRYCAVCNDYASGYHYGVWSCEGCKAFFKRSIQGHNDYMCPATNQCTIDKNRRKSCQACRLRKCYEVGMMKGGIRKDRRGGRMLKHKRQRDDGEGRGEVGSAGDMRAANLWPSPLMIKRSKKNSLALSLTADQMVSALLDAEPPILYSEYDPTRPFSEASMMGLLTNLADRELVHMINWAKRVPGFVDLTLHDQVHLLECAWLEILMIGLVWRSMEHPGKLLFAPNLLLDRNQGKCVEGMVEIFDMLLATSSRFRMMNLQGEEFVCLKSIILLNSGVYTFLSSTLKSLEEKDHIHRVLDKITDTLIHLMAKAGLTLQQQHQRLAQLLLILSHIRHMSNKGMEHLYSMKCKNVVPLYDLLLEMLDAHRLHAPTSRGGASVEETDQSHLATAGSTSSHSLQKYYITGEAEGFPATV

As to `C[C@]12CC[C@H](O)CC1=C[C@@H](O)[C@@H]1[C@@H]2CC[C@]2(C)C(=O)CC[C@@H]12` [7α-OH-DHEA, 7α-hydroxy-DHEA], the “ERα agonist activity in ERELUC assay” value at hERα was “lack of ERα activity”. Moreover, the “ERELUC activity in ERβ-expressing HepG2 cells” value (from here on “ERELUC activity”) on human ERβ [1] was “increased”. In addition, in test [2], the “CTSD (cathepsin D) expression” value is on record as “no induction”, the “PGR (PR) expression” value was “no induction” and the “TFF1 (pS2) expression” value is listed as “no induction”. For the same compound, in the test on NRF1 (NRF-1) expression, the “NRF-1 mRNA expression” value is recorded as “low induction”. Further, in the test on NRF1 (NRF-1) expression (listed as α-OH-DHEA), the “NRF-1 mRNA expression” value is “statistically significant increase”. Also, the “ERE-TK-luciferase reporter activity, ERα” value in the test on ERα [3] was “stimulated activity”. The “ERE-TK-luciferase reporter activity, ERβ” value with ERβ [4] is “stimulated activity”.

For `C[C@]12CC[C@H]3[C@@H](CC=C4C[C@@H](O)CC[C@@]43C)[C@@H]1CC[C@@H]2O` [ADIOL, androst-5-ene-3β,17β-diol], the “ERELUC activity” value on human ERβ [1] is “significantly induced”. Also, in test [2], the “TFF1 (pS2) expression” value is “increased”. Further, the “NRF-1 mRNA expression” value in the test with NRF1 (NRF-1) expression is “statistically significant increase”. Further, in [5], the MCF-7 cell proliferation result is given as “increased”. In addition, in the test on MCF-7 cells, the “proliferation of MCF-7 cells” value is “stimulated proliferation”, the MCF-7 cell growth entry was “stimulated” and the MCF-7 cell proliferation result is given as “increased cell proliferation”. Moreover, the “ERE-luciferase activity, ERα” value with ERα [6] is “activated”. Moreover, the “ERE-luciferase activity, ERβ” value in the test on ERβ [7] is “activated”.

Take `C[C@]12CC[C@H](O)C[C@@H]1CC[C@@H]1[C@@H]2CC[C@]2(C)[C@@H](O)CC[C@@H]12` [3β-Adiol, 5α-androstane-3β,17β-adiol]: the “NRF-1 mRNA expression” value in the test on NRF1 (NRF-1) expression is “increased; also recorded: low induction”. Besides, the “proliferation of MCF-7 cells” value in the test with MCF-7 cells is recorded as “stimulated proliferation”. Moreover, the “ERE-luciferase activity, ERα” value in the test with ERα [6] is “activated”. In the test on ERβ [7], the “ERE-luciferase activity, ERβ” value is listed as “activated”.

Consider `C[C@]12CC[C@H](O)CC1=CC[C@@H]1[C@@H]2CC[C@]2(C)C(=O)CC[C@@H]12` [DHEA, 3β-hydroxy-androst-5-ene-17-one], for which, at human ERβ [8], the negative logarithm of the IC50 (pIC50) (usually the IC50 on a negative log10 scale, so that one unit is a factor of ten) was 3.30. Further, the “ERELUC activity” value on human ERβ [1] is “significantly induced”. In test [2], the “CTSD (cathepsin D) expression” value is reported as “increased”, the “PGR (PR) expression” value is “increased” and the “TFF1 (pS2) expression” value is “increased”. Also, the “NRF-1 mRNA expression” value with NRF1 (NRF-1) expression is given as “statistically significant increase; also recorded: low induction”. The MCF-7 cell proliferation result in test [5] is given as “increased”. Further, at ERβ [9] (read-out: Kd for ERβ), the negative logarithm of the Kd (pKd) (in general, the negative decadic logarithm of the Kd, by convention in mol/L) is about 6.30. Further, the negative-log Ki (pKi) (usually the negative decadic logarithm of the Ki, by convention in mol/L) at ERβ [9] (read-out: Ki for ERβ) was about 6.30. In addition, in the test with MCF-7 cells, the “proliferation of MCF-7 cells” value is listed as “stimulated proliferation”, the MCF-7 cell growth entry is given as “stimulated” and the MCF-7 cell proliferation entry is on record as “increased cell proliferation”. The “proliferation, cell cycle progression and migration” value in test [10] was “inhibit”. Further, the tumor cell growth result in test [11] is listed as “inhibited tumor cell growth”. Besides, in test [12], the “estrone-stimulated growth of xenografts” value is reported as “suppressed”. Further, the “effect in the mammary gland after chemical induction of tumors” value in test [13] is recorded as “anti-carcinogenic effects”.
